Results on 1 compound are retold here after patent publication US10632106B2, “Methods of cancer treatment with 2-(1′H-Indole-3′-carbonyl)-thiazole-4-carboxylic acid methyl ester” (Ariagen, Inc., priority 2009, dated 2020).

Assay type in all cases: in vivo
Series [1] deals with human prostate cancer cell line LNCaP xenografts. Kind of series: LNCaP xenograft growth inhibition in nude mice. The note with it: 20 mg/kg b.w. i.p. once daily. The protocol:
(§1) All the procedures related to animal handling, care, and the treatment in the study were performed following guidelines approved by an Institutional Animal Care and Use Committee (IACUC) of Crown Bioscience, Inc. (Santa Clara, Calif., USA, a contract research organization we hired) based on the guidance of the Association for Assessment and Accreditation of Laboratory Animal Care (AAALAC). Animals were checked for any effects of tumor growth and drug treatment on normal behavior such as mobility, food and water consumption, body weight gain/loss (gross body weights were measured twice weekly), eye/hair matting, and any other abnormal effect. Death and observed clinical signs were recorded on the basis of the number of animals within each group. Individual animals with a tumor volume exceeding 3,000 mm^3 or animals of a group with a mean tumor volume exceeding 2,000 mm^3 were euthanized. In addition, animals showing signs of severe distress and/or pain, dropping body weight more than 20% from that at the start of treatment, or losing the capability of accessing adequate food or water were humanely sacrificed.
The human prostate cancer cell line LNCaP (ATCC, American Type Culture Collection, Manassas, Va., USA) were maintained in vitro as monolayer culture in RPMI-1640 medium supplemented with 10% fetal bovine serum (FBS), 100 U/ml penicillin, 100 μg/ml streptomycin, and 2 mM L-glutamine at 37° C. in an atmosphere of 5% CO2 in air. The tumor cells were routinely subcultured twice a week. The cells growing in an exponential phase were harvested and counted for tumor inoculation.
(§2) Each mouse was inoculated subcutaneously at the right flank with the LNCaP cells (1×10^7) in 0.1 ml of PBS for tumor development. When a mean tumor volume reached around 150 mm^3, the tumor-bearing mice were divided into homogeneous blocks based on their tumor volumes followed by a randomization of mice in each block into treatment groups (thus minimizing variations in tumor response to treatments due to the differential in initial mean tumor volumes). Each treatment group was consisted of 8 tumor-bearing mice. Vehicle (DMSO) or ITE in the vehicle at specified doses were administered to the mice by either i.p. (intraperitoneal) or p.o. (oral) injection once or twice daily for 28 continuous days as indicated.
(§3) Tumor volume was measured twice weekly in two dimensions using a caliper and the volume was calculated with a formula of: V=0.5 a×b^2, where a and b are the long and short diameter (in mm) of a tumor, respectively. The tumor volume was then used for calculations of both TGI (Tumor Growth Inhibition) and TGD (Tumor Growth Delay). The TGI was determined by: TGI=ΔT/ΔC×100%, where ΔT was a difference between the mean tumor volume at a specified day of observation and that at the day treatment starts (day 1) for a drug treated group whereas ΔC was the same difference measured for the control group. The TGD was calculated as: TGD=T−C, where T was the time (in days) required for tumors in a drug treated group to reach a predetermined mean tumor volume and C the time (in days) in the control group to reach the same volume. A tumor weight was derived by equating 1,000 mm^3 in volume to 1,000 mg in weight. A net body weight was then derived by subtracting a tumor weight from a corresponding gross body weight with the tumor.
(§4) Summary statistics, including mean and the standard error of the mean (SEM), are provided for the tumor volume of each group at each time point. Statistical analysis of difference in tumor volume among groups was conducted on a data set either at the best therapeutic time point or at the final dosing day as indicated. The tumor volume data were log-transformed and evaluated using a one-way ANOVA followed by Tukey's test when significance was observed. All data were analyzed using SPSS 16.0 and p<0.05 was considered to be statistically significant.

The test system of series [2] is human liver cancer cell line HepG2 xenografts. The series is described as follows: HepG2 xenograft growth inhibition in nude mice. As to the method: as §1, §2, §3, §4
(§5) The culture and inoculation of human prostate cancer cell line LNCaP were as described in Example 1. The manipulation for human liver cancer cell line HepG2 (ATCC) was similar as that for LNCaP except that DMEM (instead of RPMI-1640) medium was used, the L-glutamine was not used, and 2×10^6 cells were used for inoculation into female nude mice. The handling of human ovarian cancer cell line OVCAR-3 (ATCC) was the same as that of LNCaP except that the DMEM medium was used and 5×10^6 cells were used for inoculation into female nude mice. […]

The test system of series [3] is human ovarian cancer cell line OVCAR-3 xenografts. The series is described as follows: OVCAR-3 xenograft growth inhibition in nude mice. The protocol:
as §1, §2, §3, §4, §5

The mark [4] stands for this setting: 80 mg/kg i.p. once daily, at a tumor volume of 800 mm^3.
Where [5] appears, read: female, nude, mouse, in vivo, 32 day.

`CCC(=O)c1csc(C(=O)c2c[nH]c3ccccc23)n1` [ITK]: the “TGD (Tumor Growth Delay)” value was 16 days in series [1] (at a tumor volume of 1,000 mm^3), 26 days in series [2] (setting [4]) and 13 days in series [3] (setting [4]). The “TGI (Tumor Growth Inhibition)” value in series [1] (day 28, TGI=ΔT/ΔC×100%) stood at 51%; in series [2] (80 mg/kg i.p. once daily, day 22, TGI=ΔT/ΔC×100%) it was 22%; in series [3] (80 mg/kg i.p. once daily, day 33, TGI=ΔT/ΔC×100%) it was 46%. For the same compound, the “net body weight loss” value in series [2] (80 mg/kg i.p. once daily) and in series [3] (80 mg/kg i.p. once daily) was “no obvious net body weight loss” each time. In addition, the mice died in series [2] (setting [5]) and in series [3] (setting [5]) was 1 out of 8 each time.
